Reference: patent US20160361330A1 (priority 2014, published 2016)
Values joined by “and” are separate entries in the source; they are usually repeats but may differ in a detail not shown here. Equal entries are not always repeated. Where two headings read alike, the source gives them in different places.

What was measured:
[1] = test system: EBOV-GFP (Ebola virus expressing the GFP reporter gene); test: microbe, parasite or virus in culture; type: cell-based; conditions: read-out: EC50 (nM) Reporter Virus EBOV-GFP HMVEC-TERT
[2] = test system: EBOV-GFP (Ebola virus expressing the GFP reporter gene); test: microbe, parasite or virus in culture; type: cell-based; conditions: Zaire ebolavirus, Huh-7, read-out: EC50 (nM) Reporter Virus EBOV-GFP Huh-7
[3] = test system: ebolavirus (EBOV) strain Zaire; test: organism not typed; type: cell-based, Ebola virus; conditions: read-out: EC50 (nM) Antigen expression (high content imaging) Ebola Hela
[4] = test system: ebolavirus (EBOV) strain Zaire; test: organism not typed; type: cell-based, Ebola virus; conditions: read-out: EC50 (nM) Antigen expression (high content imaging) Ebola Macrophage
NiV (Nipah virus) [5] = test: microbe, parasite or virus in culture; type: cell-based; conditions: Henipavirus nipahense, HeLa, read-out: EC50 (nM) CPE NiV Hela
NiV (Nipah virus) [6] = test: microbe, parasite or virus in culture; type: cell-based; conditions: Henipavirus nipahense, HeLa, read-out: EC50 (nM) Yield NiV Hela
[7] = test system: NiV GFP (Nipah virus expressing the GFP reporter gene); test: microbe, parasite or virus in culture; type: cell-based; conditions: Henipavirus nipahense, read-out: EC50 (nM) Reporter Virus NiV GFP HMVEC-TERT
[8] = test system: NiV-Luc (Nipah virus expressing the luciferase reporter gene); test: microbe, parasite or virus in culture; type: cell-based; conditions: Henipavirus nipahense, read-out: EC50 (nM) Reporter Virus NiV Luc HMVEC-TERT
[9] = test system: MARV-GFP (Marburg virus expressing the GFP reporter gene); test: organism not typed; type: cell-based; conditions: Huh-7, read-out: EC50 (nM) Reporter Virus MARV-GFP Huh-7
[10] = test system: EBOV-Luc (Ebola virus expressing the luciferase reporter gene); test: microbe, parasite or virus in culture; type: cell-based; conditions: Zaire ebolavirus, Huh-7, read-out: EC50 (nM) Reporter Virus EVOV-Luc Huh-7
Ebola virus (EBOV) [11] = test: microbe, parasite or virus in culture; type: cell-based; conditions: Zaire ebolavirus, Huh-7, read-out: EC50 (nM) Yield Ebola Huh-7
Ebola virus (EBOV) [12] = test: microbe, parasite or virus in culture; type: cell-based; conditions: Zaire ebolavirus, Huh-7, read-out: EC50 (nM) RNA Ebola Huh-7

Compound	EC50 ([1]; Zaire ebolavirus)	EC50 ([3]; HeLa)	EC50 ([4]; Macrophage)	further results
CCC(CC)COC(=O)[C@H](C)N[P@@](=O)(OC[C@H]1O[C@@](C#N)(c2ccc3c(N)ncnn23)[C@H](O)[C@@H]1O)Oc1ccccc1 (single isomer, unassigned) [(R)-Diastereomer of Compound 9]	62 nM	210 nM	112 nM	EC50 [2]: 70 nM
CCC(CC)COC(=O)[C@H](C)N[P@](=O)(OC[C@H]1O[C@@](C#N)(c2ccc3c(N)ncnn23)[C@H](O)[C@@H]1O)Oc1ccccc1 (single isomer, unassigned) [(S)-Diastereomer of Compound 9 (Compound 32)]	40 nM	100 nM	87 nM	EC50 [2]: 81 nM
CC(C)OC(=O)[C@H](C)NP(=O)(OC[C@H]1O[C@@](C#N)(c2ccc3c(N)ncnn23)[C@H](O)[C@@H]1O)Oc1ccccc1 (stereo in doubt) [Compound 23, (S)-isopropyl 2-(((R)-(((2R,3S,4R,5R)-5-(4-aminopyrrolo[2,1-f][1,2,4]triazin-7-yl)-5-cyano-3,4-dihydroxytetrahydrofuran-2-yl)methoxy)(phenoxy)phosphoryl)amino)propanoate]	458 nM	1650 nM	243 nM	EC50 [3]: 1840 nM; EC50 [4]: 350 nM and 297 nM
N#C[C@@]1(c2ccc3c(N)ncnn23)O[C@H](CO)[C@@H](O)[C@H]1O [Compound 1, (2R, 3R, 4S, 5R)-2-(4-aminopyrrolo[1,2-f][1,2,4]triazin-7-yl)-3,4-dihydroxy-5-(hydroxymethyl)tetrahydrofuran-2-carbonitrile]	771 nM	> 20000 nM	> 20000 nM	EC50 (NiV (Nipah virus) [5]): 1480 nM; EC50 (NiV (Nipah virus) [6]): 1000 nM; EC50 [2]: 1490 nM; EC50 [7]: 13400 nM; EC50 [8]: 3500 nM; EC50 [9]: 1730 nM; EC50 [10]: 3130 nM
CCC(CC)COC(=O)[C@H](C)NP(=O)(OC[C@H]1O[C@@](C#N)(c2ccc3c(N)ncnn23)[C@H](O)[C@@H]1O)Oc1ccccc1 (stereo partly drawn) [Compound 9, (2S)-2-ethylbutyl 2-(((((2R,3S,4R,5R)-5-(4-aminopyrrolo[2,1-f][1,2,4]triazin-7-yl)-5-cyano-3,4-dihydroxytetrahydrofuran-2-yl)methoxy)(phenoxy)phosphoryl)amino) propanoate]		290 nM		EC50 (Ebola virus (EBOV) [11]): 1030 nM; EC50 (Ebola virus (EBOV) [12]): 1 nM; EC50 [2]: 90 nM; EC50 [7]: 60 nM; EC50 [3]: 270 nM; EC50 [8]: 30 nM; EC50 [4]: 501 nM
CCOC(=O)[C@H](C)NP(=O)(OC[C@H]1O[C@@](C#N)(c2ccc3c(N)ncnn23)[C@H](O)[C@@H]1O)Oc1ccccc1 (stereo partly drawn) [Compound 10, (2S)-ethyl 2-(((((2R,3S,4R,5R)-5-(4-aminopyrrolo[2,1-f][1,2,4]triazin-7-yl)-5-cyano-3,4-dihydroxytetrahydrofuran-2-yl)methoxy)(phenoxy)phosphoryl)amino)propanoate]		3200 nM		
CC(C)(C)C(=O)SCCOP(=O)(OCCSC(=O)C(C)(C)C)OC[C@H]1O[C@@](C#N)(c2ccc3c(N)ncnn23)[C@H](O)[C@@H]1O [Compound 15]	630 nM	520 nM	501 nM	EC50 [2]: 271 nM
CCOC(=O)[C@H](Cc1ccccc1)NP(=O)(OC[C@H]1O[C@@](C#N)(c2ccc3c(N)ncnn23)[C@H](O)[C@@H]1O)Oc1ccccc1 (stereo partly drawn) [Compound 21, (2S)-ethyl 2-(((((2R,3S,4R,5R)-5-(4-aminopyrrolo[2,1-f][1,2,4]triazin-7-yl)-5-cyano-3,4-dihydroxytetrahydrofuran-2-yl)methoxy)(phenoxy)phosphoryl)amino)-3-phenylpropanoate]	905 nM		270 nM	EC50 [1]: 473 nM
CCOC(=O)[C@@H](NP(=O)(OC[C@H]1O[C@@](C#N)(c2ccc3c(N)ncnn23)[C@H](O)[C@@H]1O)Oc1ccccc1)C(C)C (stereo partly drawn) [Compound 22, (2S)-ethyl 2-(((((2R,3S,4R,5R)-5-(4-aminopyrrolo[2,1-f][1,2,4]triazin-7-yl)-5-cyano-3,4-dihydroxytetrahydrofuran-2-yl)methoxy)(phenoxy)phosphoryl)amino)-3-methylbutanoate]		11600 nM		
C[C@H](NP(=O)(OC[C@H]1O[C@@](C#N)(c2ccc3c(N)ncnn23)[C@H](O)[C@@H]1O)Oc1ccccc1)C(=O)OC1CCC1 (stereo partly drawn) [Compound 24, (2S)-cyclobutyl 2-(((((2R,3S,4R,5R)-5-(4-aminopyrrolo[2,1-f][1,2,4]triazin-7-yl)-5-cyano-3,4-dihydroxytetrahydrofuran-2-yl)methoxy)(phenoxy)phosphoryl)amino)propanoate]		785 nM		
CC(C)OC(=O)[C@H](Cc1ccccc1)NP(=O)(OC[C@H]1O[C@@](C#N)(c2ccc3c(N)ncnn23)[C@H](O)[C@@H]1O)Oc1ccccc1 (stereo partly drawn) [Compound 25, (2S)-isopropyl 2-(((((2R,3S,4R,5R)-5-(4-aminopyrrolo[2,1-f][1,2,4]triazin-7-yl)-5-cyano-3,4-dihydroxytetrahydrofuran-2-yl)methoxy)(phenoxy)phosphoryl)amino)-3-phenylpropanoate]		6720 nM		
COC(=O)[C@H](C)N[P@](=O)(OC[C@H]1O[C@@](C#N)(c2ccc3c(N)ncnn23)[C@H](O)[C@@H]1O)Oc1ccccc1 [Compound 26, (S)-methyl 2-(((S)-(((2R,3S,4R,5R)-5-(4-aminopyrrolo[2,1-f][1,2,4]triazin-7-yl)-5-cyano-3,4-dihydroxytetrahydrofuran-2-yl)methoxy)(phenoxy)phosphoryl)amino)propanoate]	283 nM	970 nM	1180 nM	EC50 [3]: 1100 nM; EC50 [4]: 1290 nM
C[C@H](N[P@](=O)(OC[C@H]1O[C@@](C#N)(c2ccc3c(N)ncnn23)[C@H](O)[C@@H]1O)Oc1ccccc1)C(=O)OCC(C)(C)C [Compound 27, (S)-neopentyl 2-(((S)-(((2R,3S,4R,5R)-5-(4-aminopyrrolo[2,1-f][1,2,4]triazin-7-yl)-5-cyano-3,4-dihydroxytetrahydrofuran-2-yl)methoxy)(phenoxy)phosphoryl)amino) propanoate]	82 nM	182 nM		
C[C@H](NP(=O)(OC[C@H]1O[C@@](C#N)(c2ccc3c(N)ncnn23)[C@H](O)[C@@H]1O)Oc1ccccc1)C(=O)OC1CCCC1 (stereo partly drawn) [Compound 28, (2S)-cyclopentyl 2-(((((2R,3S,4R,5R)-5-(4-aminopyrrolo[2,1-f][1,2,4]triazin-7-yl)-5-cyano-3,4-dihydroxytetrahydrofuran-2-yl)methoxy)(phenoxy)phosphoryl)amino) propanoate]	102 nM	975 nM	120 nM	EC50 [3]: 682 nM
C[C@H](NP(=O)(OC[C@H]1O[C@@](C#N)(c2ccc3c(N)ncnn23)[C@H](O)[C@@H]1O)Oc1ccccc1)C(=O)OC1CCCCC1 (stereo partly drawn) [Compound 29, (2S)-cyclohexyl 2-(((((2R,3S,4R,5R)-5-(4-aminopyrrolo[2,1-f][1,2,4]triazin-7-yl)-5-cyano-3,4-dihydroxytetrahydrofuran-2-yl)methoxy)(phenoxy)phosphoryl)amino) propanoate]		275 nM		
CCOC(=O)C(C)(C)NP(=O)(OC[C@H]1O[C@@](C#N)(c2ccc3c(N)ncnn23)[C@H](O)[C@@H]1O)Oc1ccccc1 (stereo partly drawn) [Compound 30, ethyl 2-(((((2R,3S,4R,5R)-5-(4-aminopyrrolo[2,1-f][1,2,4]triazin-7-yl)-5-cyano-3,4-dihydroxytetrahydrofuran-2-yl)methoxy)(phenoxy)phosphoryl)amino)-2-methylpropanoate]	11100 nM	> 20000 nM	1230 nM	
CC(C)OC(=O)C(C)(C)NP(=O)(OC[C@H]1O[C@@](C#N)(c2ccc3c(N)ncnn23)[C@H](O)[C@@H]1O)Oc1ccccc1 (stereo partly drawn) [Compound 31, Isopropyl 2-(((((2R,3S,4R,5R)-5-(4-aminopyrrolo[2,1-f][1,2,4]triazin-7-yl)-5-cyano-3,4-dihydroxytetrahydrofuran-2-yl)methoxy)(phenoxy)phosphoryl)amino)-2-methylpropanoate]	11100 nM	> 20000 nM	1230 nM	EC50 [3]: > 10000 nM
